Test system: primary adenocarcinoma NSCLC xenograft
Assay: Primary adenocarcinoma NSCLC xenograft model
Format: in vivo, SCID mice
Settings: VE-822 60 mg/kg po qd4 with cisplatin 1 or 3 mg/kg ip q7d; FIG. 20
Method: Tumor tissue was excised from a patient with a poorly differentiated adenocarcinoma. This tumor tissue was implanted subcutaneously in the flank of a SCID mouse and passaged twice before compound testing. For compound testing passage-two tumor tissue was implanted subcutaneously in the flank of SCID mice and tumors grown to a volume of about 200 mm^3 Cisplatin was dosed alone at either 1 or 3 mg/kg ip, once per week (ip, q7d, on day 2 of each week) for two weeks. VE-822 was dosed as a solution alone at 60 mg/kg po on 4 consecutive days per weekly cycle (qd4, dosed on days 1, 2, 3 and 4 each week). Two combination groups received cisplatin at 1 or 3 mg/kg plus VE-822 at 60 mg/kg po on the same schedule as the single agent group. A control group received vehicle alone (10% Vitamin E TPGS in water, po qd4). All drug treatment was stopped on Day 28. Vehicle, cisplatin (1 mg/kg) and VE-822 (60 mg/kg) groups were sacrificed and the remainder monitored for a further 40 days to assess tumor re-growth.
Data are mean±sem, n=9-10. […]

CNCc1ccc(-c2cc(-c3nc(-c4ccc(S(=O)(=O)C(C)C)cc4)cnc3N)on2)cc1 [VE-822]
antitumor effects of cisplatin (tumor volume): enhances the antitumor effects of cisplatin

From US10813929B2, “Treating cancer with ATR inhibitors” (VERTEX PHARMACEUTICALS INCORPORATED, priority 2011, dated 2020)
